Target: T1, human MMP-9 (Homo sapiens, UniProt P14780)
T1 construct: purchased Yagai, Japan
Test: Inhibitory activity of human MMP-9
Format: biochemical
Conditions: commercial kit (Yagai, Japan); degradation of FITC-labeled bovine type IV collagen after incubation for 4 hours at 42° C.
Description: Inhibitory Activity of Human MMP-9
The inhibitory activity of test compounds against human MMP-9 were measured by using commercial kits (Yagai, Japan). Gelatinolytic activity was determined by monitoring the degradation of FITC-labeled bovine type IV collagen after incubation for 4 hours at 42° C. The amount of degraded collagen was estimated by measuring the fluorescence intensity at 495 nm (excitation) and 520 nm (emission).
Inhibitory activity of human MMP-9 as mentioned above.

T1 sequence (P14780 94-707): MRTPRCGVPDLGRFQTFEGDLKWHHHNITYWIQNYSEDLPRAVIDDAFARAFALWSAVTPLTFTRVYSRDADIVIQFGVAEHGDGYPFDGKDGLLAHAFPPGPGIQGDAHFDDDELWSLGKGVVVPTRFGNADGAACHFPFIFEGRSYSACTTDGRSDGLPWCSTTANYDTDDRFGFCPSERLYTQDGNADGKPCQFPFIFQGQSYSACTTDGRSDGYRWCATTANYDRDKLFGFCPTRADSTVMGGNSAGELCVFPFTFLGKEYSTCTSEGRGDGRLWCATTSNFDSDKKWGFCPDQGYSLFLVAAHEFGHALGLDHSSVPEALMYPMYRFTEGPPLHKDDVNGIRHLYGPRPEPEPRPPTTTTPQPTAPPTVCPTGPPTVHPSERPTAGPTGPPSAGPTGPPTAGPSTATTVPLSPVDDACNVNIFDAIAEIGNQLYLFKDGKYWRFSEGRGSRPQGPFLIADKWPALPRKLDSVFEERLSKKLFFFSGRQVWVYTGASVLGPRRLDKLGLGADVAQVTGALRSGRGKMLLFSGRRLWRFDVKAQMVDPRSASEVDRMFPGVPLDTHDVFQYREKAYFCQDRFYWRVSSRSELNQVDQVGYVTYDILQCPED

SMILES: COc1ccc(-c2ccc(C3(CC(=O)NO)CCN(S(C)(=O)=O)CCS3(=O)=O)s2)cc1 (stereo not shown) [Example 17, N-hydroxy-2-[7-(5-(4-methoxyphenyl)-2-thienyl)-4-methanesulfonyl-1,1-dioxoperhydro-1,4-thiazepin-7-yl]acetamide]
- IC50: 2.85 nM

From patent US6967197B2, “Thiazepinyl hydroxamic acid derivatives as matrix metalloproteinase inhibitors” (Fujisawa Pharmaceutical Co., Ltd., priority 2000, dated 2005)
